Data reported in US8158589B2, “Peptides with the capacity to bind to transforming growth factor β1 (TGF-β1)” (Proyecto Biomedicine Cima, S.L., priority 2003, dated 2012).
Entries after “also recorded” stand apart in the source; their conditions may differ. Ends that are not written are not given here.

Assays:
[1] = molecular target: T1, TGF-β1 (Mus musculus, UniProt P04202); assay: Model of acute liver damage induced by CCl4, type I collagen mRNA by real time PCR; format: in vivo, mice
T1 construct: from tissue; host or cells: liver of Balb/C mice (CCl4 model); lung of C57BL/6 mice (bleomycin model)
T1 sequence (P04202 279-390 limits assumed): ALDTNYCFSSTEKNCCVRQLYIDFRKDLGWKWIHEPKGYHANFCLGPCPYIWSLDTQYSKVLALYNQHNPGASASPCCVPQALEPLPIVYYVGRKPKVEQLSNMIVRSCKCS
Procedure, shortened: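 Female Balb/C mice (25–30 g) received a single oral dose of CCl4 at 2 µl/g body weight in corn oil (1:1). Peptide was given at 50 µg in 500 µl of 1% saline in DMSO every 24 h. At 72 h, liver type I collagen mRNA was quantified by real-time PCR against corn-oil controls.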

[2] = molecular target: T2, TGF-β1 (Homo sapiens, UniProt P01137); assay: CTGF mRNA expression induced by TGF-β1 in IMR-90 lung fibroblasts, real time RT-PCR; format: cell-based; parameters: purchased R&D Systems; host or cells: added to IMR-90 human lung fibroblasts; conditions: IMR-90 cells, 5 ng/ml TGF-β1, peptide 100 μg/ml, 6 hours
T2 sequence (P01137 279-390 limits assumed): as the sequence (P04202 279-390 limits assumed) above, with S75A counted along it
Experimental: IMR-90 human lung fibroblasts (ATCC, Manassas, Va.) were cultured in EMEM medium (Cambrex, Belgium) supplemented with 10% fetal bovine serum (FBS), 1 mM sodium pyruvate, 0.1 mM nonessential amino acids, 100 U/ml penicillin and 100 μg/ml streptomycin (Gibco BRL, UK). For experiments, 6×10^4 cells/well were cultured in 6-well plates in 2 ml of medium and when they were 80% confluent, medium was replaced with serum-free EMEM for 48 h to induce quiescence. TGF-β1 (5 ng/ml) and P17 (100 μg/ml) were co-incubated for 90 min at 37° C. to allow binding of both molecules before addition to cell cultures. Quiescent cells were then stimulated with TGF-β1 and/or P17 for up to 6 or 24 h. After these incubation periods, fibroblasts were harvested for gene and protein analysis, respectively.
Total RNA was purified from IMR-90 fibroblasts and whole lung samples using Ultraspec RNA (Biotecx; Houston, Tex.) according to the manufacturer's instructions. […] Expression of human Connective Tissue Growth Factor (CTGF) mRNA induced by TGF-β1 in IMR-90 fibroblasts was measured by real time RT-PCR using an ICycler and IQ SYBR Supermix (Bio-Rad, Italy). […] For in vivo analysis, expression of murine Fibronectin (FN), extra domain A of Fibronectin (EDA-FN), Collagen type I and Interferon gamma (IFN-γ) was measured in lungs, using Histone 3 as internal control. […]

[3] = molecular target: T2, TGF-β1; parameters: purchased R&D Systems; host or cells: added to IMR-90 human lung fibroblasts; conditions: lung fibroblasts, Dotor et al. Cytokine 2007; cited from earlier work

CTGF mRNA expression induced by TGF-β1 [2]: significantly decreased
Sequence: KRIWFIPRSSWYERA [SEQ ID NO: 17, KRIWFIPRSSWYERA]
% Inhibition of type I collagen mRNA induction (in vivo TGF-β1 biological activity) ([1]; Balb/C mice, oral CCl4, 50 μg of peptide every 24 h, sacrifice after 72 hours): 93.09 ± 9.6%
inhibition of the biological activity of TGF-β1 in vivo (in words) ([1]; acute liver damage, type I collagen mRNA): most active peptide; also recorded: much greater extent; also recorded: inhibitory capacity; also recorded: capable of inhibiting the expression of collagen type I mRNA
Smad2 phosphorylation induced by TGF-β1 [3]: decreased
